Assay results published in BindingDB's records for doi:10.7270/Q2736PBV (Broad Institute, 2009).

Molecular target: T1, Streptokinase A (Streptococcus pyogenes serotype M1, UniProt P10520)
T1 sequence (P10520 whole entry): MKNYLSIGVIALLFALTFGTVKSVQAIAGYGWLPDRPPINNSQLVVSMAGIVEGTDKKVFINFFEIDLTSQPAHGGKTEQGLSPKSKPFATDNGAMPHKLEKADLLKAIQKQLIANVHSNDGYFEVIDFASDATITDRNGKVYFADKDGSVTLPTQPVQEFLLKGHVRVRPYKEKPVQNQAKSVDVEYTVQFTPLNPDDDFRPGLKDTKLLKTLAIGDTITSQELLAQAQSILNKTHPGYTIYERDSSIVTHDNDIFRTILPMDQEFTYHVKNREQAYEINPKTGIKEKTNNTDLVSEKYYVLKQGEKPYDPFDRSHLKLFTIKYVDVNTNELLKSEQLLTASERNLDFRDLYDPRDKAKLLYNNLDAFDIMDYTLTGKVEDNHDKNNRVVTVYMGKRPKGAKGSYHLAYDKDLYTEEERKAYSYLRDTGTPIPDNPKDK
Assay: viability-normalized secreted streptokinase activity reduction – plasminogen activation absorbance, OD405, dose response (AID 1914)

SMILES	EC50 [µM]
COc1ccccc1CN=Nc1cc(C)nc(-n2nc(C)cc2C)n1 [SMR000212744]	> 150
Oc1ccc(CN=Nc2nc(-c3ccc(Cl)cc3)cc(C(F)(F)F)n2)cc1 [SMR000212812]	16.3
O=C(CC1=NC2(CCCC2)Cc2ccccc21)C(=O)NN=Cc1ccccc1O [SMR000219463]	> 150
COc1cc(CN=Nc2ncnc3sc4c(c23)CCC4)ccc1O [SMR000242188]	5.06
CN1C(=O)/C(=N\NC(=O)c2cc(-c3cccs3)nc3ccccc23)c2ccccc21 [SMR000242891]	> 150
CN1C(=O)C(=NNc2nc(-c3ccccc3)cs2)c2ccccc21 [SMR000243133]	7.09
CC(C)c1ccc2c(c1)=C(NNC(=O)c1cccc(S(=O)(=O)N3CCCCC3)c1)C(=O)N=2 [SMR000243307]	> 150
CC1=C2C(=NC3=C(C(=O)c4ccccc43)C2c2c(C)cc(C)cc2C)N(c2ccccn2)N1 (stereo not drawn) [SMR000263933]	22.2
CC(=N)C(C#N)C(=O)COC(=O)c1cc(-c2ccc(Br)cc2)nc2ccccc12 (stereo not drawn) [SMR000264784]	4.43
Cc1cc2nc(-n3c(O)c[nH]c3=S)sc2cc1C [SMR000272190]	> 150
COc1cccc(CN=Nc2cc(C)nc(-c3ccccc3O)n2)c1O [SMR000274167]	> 150
CCC1C(c2ccccc2)NC(c2ccccc2)C(CC)C1N=O (stereo not drawn) [SMR000283074]	13.3
Oc1nc(Nc2ccccn2)sc1Cc1ccc(Cl)cc1 [SMR000288952]	> 150
Cc1ccccc1CN=Nc1nc2ccccc2[nH]1 [SMR000305031]	> 150
O=C(O)COc1ccc(CN=Nc2nc(Nc3ccccc3)nc(N3CCCCC3)n2)cc1 [SMR000312685]	> 150
CN1C(=O)C(=NNC(=S)Nc2ccccc2F)c2cc(S(=O)(=O)N3CCOCC3)ccc21 [SMR000314843]	> 150
O=C1C(=NNC(=S)Nc2ccccc2F)c2ccccc2N1Cc1ccccc1 [SMR000314861]	> 150
Cc1cc(C)n(C(=O)C(C#N)N=Nc2cc(Cl)cc(Cl)c2)n1 (stereo not drawn) [SMR000335596]	> 150
N#Cc1c(-c2c(Cl)cccc2Cl)noc1CC=Nc1ccc(C(=O)O)cc1 [SMR000337673]	> 150

SMILES	EC50 [µM]
CC(N=Nc1nc2ccccc2[nH]1)c1ccc2c(c1)OCO2 (stereo not drawn) [SMR000354227]	> 150
O=C(N/N=C/C1C=C(Cl)C=C([N+](=O)[O-])C1=O)c1ccccc1NS(=O)(=O)c1cccs1 (stereo not drawn) [SMR000364876]	> 150
COc1ccc(NC(=S)NNC2=c3ccccc3=NC2=O)cc1 [SMR000413743]	> 150
O=C1C(Br)=CC([N+](=O)[O-])=C/C1=C\NNC(=O)C12CC3CCC(CC(C3)C1)C2 [SMR000414723]	> 150
Cc1ccc(O)c(C2CC(c3ccc(Cl)cc3)N=N2)c1 (stereo not drawn) [SMR000414826]	> 150
CC1CC(C)(C)N2C(=O)/C(=N\NC(N)=S)c3cccc1c32 (stereo not drawn) [SMR000414933]	> 150
CC1=CC(C)(C)N2C(=O)/C(=N\N)c3c(C)c(C)cc1c32 [SMR000414935]	16.3
CCCCCCC(=O)NNC=C1C(=O)NC(=S)N(C(C)CC)C1=O (stereo not drawn) [SMR000439319]	> 150
COc1cccc(C(=O)Oc2ccc(CN=Nc3ccc(C(=O)O)cc3)cc2OC)c1 [SMR000502791]	> 150
Cc1cc(C)c2c(c1)C(=NNc1ccc(C(=O)O)cc1)C(O)=N2 [SMR000592331]	> 150
O=C1C(=O)N(Cc2ccco2)C(c2cccc(Cl)c2)C1C(=O)c1ccco1 (stereo not drawn) [SMR000665558]	> 150
O=C(CSc1ccc(Cl)cc1)Nc1cc(=O)n(-c2ccccc2)[nH]1 [SMR000672521]	9.33
CNC(=O)c1c(NC(=O)c2ccc(-n3c(O)ccc3O)cc2)sc2c1CCC(C)C2 (stereo not drawn) [SMR000806319]	> 150
CSc1cccc(-c2nnc(NC(=O)c3cccc(-n4c(O)ccc4O)c3)o2)c1 [SMR000811880]	> 150
CC(=NNC(=N)Sc1cc(O)n(-c2ccc(Br)cc2)c1O)c1cccs1 [[1-(4-bromophenyl)-2,5-bis(oxidanylidene)pyrrolidin-3-yl] N''-(1-thiophen-2-ylethylideneamino)carbamimidothioate]	9.08
CCN1C(=O)C(C=NN=Cc2ccccc2)c2ccc(C3=NNC(=O)CC3)cc21 (stereo not drawn) [benzaldehyde {[1-ethyl-2-oxo-6-(6-oxo-1,4,5,6-tetrahydro-3-pyridazinyl)-1,2-dihydro-3H-indol-3-ylidene]methyl}hydrazone]	> 150
CC(C)COC(=O)c1cccc2c1-c1ccccc1C2N=O (stereo not drawn) [isobutyl 9-(hydroxyimino)-9H-fluorene-4-carboxylate]	50
COC(=O)c1sc(N2C(=O)C(=O)C(C(=O)c3ccc(C)o3)C2c2ccc([N+](=O)[O-])cc2)nc1C (stereo not drawn) [methyl 2-[4-hydroxy-3-(5-methylfuran-2-carbonyl)-2-(4-nitrophenyl)-5-oxo-2H-pyrrol-1-yl]-4-methyl-1,3-thiazole-5-carboxylate]	> 150
C[N+](C)(C)c1ccc(CN=Nc2nc(Cl)c(C#N)c(Cl)c2Cl)cc1 [trimethyl-[4-[[(3,4,6-trichloro-5-cyanopyridin-2-yl)hydrazinylidene]methyl]phenyl]azanium;iodide]	> 150
